Measured values: patent US20210255193A1, “LYSINE REACTIVE PROBES AND USES THEREOF” (The Scripps Research Institute, priority 2017, published 2021)
“Also recorded” adds a separate entry of the source.

Experiments:
[1] = target: T1, Flag-tagged SIN3A (a.a. 1-400) (Homo sapiens, UniProt Q96ST3); test: competitive gel-based ABPP, apparent IC50; assay type: binding; details: probe 17, HEK293T cell lysates
T1 construct: expressed in transfected cells; host or cells: HEK 293T, transient transfection, lysate
Method: Recombinant expression of proteins by transient transfection. HEK 293T cells were grown to 50% confluency in 10 ml DMEM supplemented with 10% fetal bovine serum (FBS), penicillin, streptomycin and glutamine in 10 cm tissue culture dishes. 3 μg of DNA was diluted in 500 μL DMEM and 30 μL of PEI (MW 40,000, 1 mg ml^−1, Polysciences) were added. The mixture was incubated at room temperature for 30 min and added dropwise to the cells. Cells were grown for 48 h at 37° C. with 5% CO2. Cells were washed with cold PBS, scraped with cold PBS and cell pellets were isolated by centrifugation (1,400 g, 3 min, 4° C.), and stored at −80° C. until use. Cell pellets were resuspended in PBS, lysed by sonication and fractionated (100,000 g, 45 min) to yield soluble and membrane fractions. The soluble fraction was adjusted to a final protein concentration of 1 mg ml^−1 for gel-based ABPP experiments.
Competitive gel-based ABPP and apparent IC50 values. 50 μl of soluble proteome (1 mg ml^−1) expressing the indicated protein were treated with fragment electrophiles (1 μl of 50× stock solution in DMSO) at ambient temperature for 1 h. The indicated probe (fluorophore or alkyne-containing, 1 μl of a 500 μM solution, final concentration=10 μM) was then added and allowed to react for an additional 1 h. CuAAC and in-gel fluorescence analysis were performed as described above. For quantification of inhibition and apparent IC50 determination, the percentage of labeling was determined by quantifying the integrated optical intensity of the bands using ImageLab 5.2.1 software (BioRad). Nonlinear regression analysis was used to determine the IC50 values from a dose-response curve generated using GraphPad Prism 7.

[2] = system: soluble proteome of the human breast cancer cell line MDA-MB-231; test: isoTOP-ABPP, residues labeled by probe 1; assay type: binding
Method: STP-alkyne labeling and click chemistry. For concentration-dependent reactivity measurements by isoTOP-ABPP, 0.5 ml proteome aliquots were treated at ambient temperature with 1 mM STP-alkyne 1 (5 μl of 100 mM stock in DMSO) and 0.1 mM STP alkyne 1 (5 μl of 10 mM stock in DMSO), respectively. For competitive isoTOP-ABPP, after in vitro fragment treatment (detailed above), the samples were labeled for 1 h at ambient temperature with 0.1 mM STP-alkyne 1 (5 μl of 10 mM stock in DMSO). Samples were conjugated by copper-mediated azide-alkyne cycloaddition (CuAAC) to either the light (1 mM STP-alkyne or fragment treated) or heavy (0.1 mM STP-alkyne or DMSO treated) TEV tags (10 μl of 5 mM stocks in DMSO, final concentration=100 μM) using tris(2-carboxyethyl)phosphine hydrochloride
Peptide and protein identification. The MS2 spectra were extracted from the raw file using RAW Xtractor. MS2 spectra were searched using the ProLuCID algorithm using a reverse concatenated, nonredundant variant of the Human UniProt database (release-2012_11). Cysteine residues were searched with a static modification for carboxyamidomethylation (+57.02146). For all competitive and reactivity profiling experiments, lysine residues were searched with up to one differential modification for either the light or heavy TEV tags (+464.2491 or +470.26331, respectively). Peptides were required to have at least one tryptic terminus and to contain the TEV modification. ProLuCID data was filtered through DTASelect (version 2.0) to achieve a peptide false-positive rate below 1%.
Differential labeling analysis of residues labeled by probe 1. For analysis of the residues labeled by probe 1, peptide and protein identification was conducted as detailed above with differential modification for either the light or heavy TEV tags (+464.2491 or +470.26331, respectively) allowed on lysine, arginine, aspartate, glutamate, histidine, serine, threonine, tyrosine, asparagine, glutamine and tryptophan. Cysteine was searched with a differential modification for either the light or heavy TEV tags (+413.24185 and +407.22764, respectively).
To assess the scope and selectivity with which 1 reacted with lysine residues in human cell proteomes, initial isoTOP-ABPP experiments were performed as follows. Two equal amounts of the soluble proteome of the human breast cancer cell line MDA-MB-231 (0.75 mg of protein per sample) were treated with 1 (100 μM, 1 h), and then conjugated by copper-catalyzed azide-alkyne cycloaddition (CuAAC) to isotopically differentiated TEV-cleavable, azide-biotin tags (heavy and light, respectively). The heavy and light-tagged samples were then combined, and 1-labeled proteins enriched by streptavidin and proteolytically digested sequentially with trypsin and TEV protease (to release 1-labeled tryptic peptides from the streptavidin support), furnishing isotopic (heavy/light) peptide pairs that were analyzed by multidimensional liquid chromatography-MS(LC/LC-MS/MS). Measurement of the MS1 chromatographic peak ratios for light/heavy peptide pairs provided an isoTOP-ABPP ratio or R value, which centered on about 1.0 for the more than 5000 probe 1-labeled peptides quantified in this initial study. […] Because lysine modification creates a missed trypsin cleavage site, the fractions of alternative amino-acid modification assignments were further assessed for their occurrence on peptides harboring a missed lysine cleavage site. […]

[3] = 1 100 μM, 1 h, pilot experiment

T1 sequence (Q96ST3 1-400): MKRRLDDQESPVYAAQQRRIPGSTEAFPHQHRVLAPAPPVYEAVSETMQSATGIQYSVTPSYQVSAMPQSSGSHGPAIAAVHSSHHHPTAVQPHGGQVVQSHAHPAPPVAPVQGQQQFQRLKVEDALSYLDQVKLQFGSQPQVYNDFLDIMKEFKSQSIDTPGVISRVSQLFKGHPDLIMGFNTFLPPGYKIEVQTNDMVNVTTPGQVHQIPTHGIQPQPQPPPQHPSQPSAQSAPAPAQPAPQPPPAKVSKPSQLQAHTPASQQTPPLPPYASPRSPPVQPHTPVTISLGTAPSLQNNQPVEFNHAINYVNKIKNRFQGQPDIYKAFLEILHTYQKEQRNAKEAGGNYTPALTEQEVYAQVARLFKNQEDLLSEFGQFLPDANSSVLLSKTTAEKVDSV

Compound | blockade of probe labeling of K155 [1] | IC50 ([1]; read-out: apparent IC50, blockade of probe labeling of K155) | reactivity and selectivity for lysine residues in the human proteome ([2]; 1 100 μM) | probe 1-labeled peptides quantified ([2]; 1 100 μM, 1 h) | 1-labeled peptides assigned as uniquely modified on lysine residues [2, 3] | remaining 1-labeled peptides assigned with lysine modifications as well as alternative residue modifications [2, 3] | probe 1 modifications assigned to serine, of the total 1-labeled peptides ([2]; after filtering missed lysine cleavage events)
O=C(Oc1c(F)c(F)c(F)c(F)c1F)c1cc(C(F)(F)F)cc(C(F)(F)F)c1 [fragment 21, Pentafluorophenyl 3,5-bis(trifluoromethyl)benzoate] | site-specific and complete blockade of probe labeling of K155; also recorded: blocks probe 17 labeling of SIN3A at K155 in a concentration-dependent manner | 5 µM | – | – | – | – | –
C#CCCC(=O)Oc1c(F)c(F)c(S(=O)(=O)[O-])c(F)c1F.[Na+] [probe 1, reference compound] | – | – | broad reactivity and good selectivity for lysine residues | more than 5000 | > 52% | 54% | about 8%
